pKd: −log10 of the molar value. Read-outs that look alike come from different tables or passages of the source.

Assay [1] deals with eIF2Bα (cteIF2Bα). Description: ITC. It counts as binding, Thermochaetoides thermophila.
Assay [2] addresses eIF2Bα (cteIF2Bα). The experiment in a line: ITC. It counts as binding, Thermochaetoides thermophila. This is another data set of the same source.
The target of assay [3] is eIF2Bα (cteIF2Bα). The experiment in a line: ITC. It counts as binding, Thermochaetoides thermophila. This is another data set of the same source.
The target of assay [4] is Chaetomium thermophilum eIF2Bα (Chaetomium thermophilum). Description: SEC-MALS.
The target in assay [5] is eIF2B(βδ)2 complex (Chaetomium thermophilum, untagged full-length subunits) (Chaetomium thermophilum). Description: SEC-MALS. Background: SEC sorts molecules by how far they enter the pores of the column.

`Nc1ncnc2c1ncn2[C@@H]1O[C@H](COP(=O)(O)O)[C@@H](O)[C@H]1O` [AMP]: in assay [1], the pKd (usually −log10 of the Kd, conventionally taken in molar units) was 5.00.
`Nc1ccn([C@@H]2O[C@H](COP(=O)(O)O)[C@@H](O)[C@H]2O)c(=O)n1` [CMP]: in assay [2], the pKd was 4.19.
In the case of `Nc1nc2c(ncn2[C@@H]2O[C@H](COP(=O)(O)O)[C@@H](O)[C@H]2O)c(=O)[nH]1` [GMP], the pKd in assay [3] was 5.54.
With “Chaetomium thermophilum eIF2Bα (natural protein)”, the stoichiometry N (usually a count of units in the complex or per binding partner) amounted to 2 in assay [4] and 1 in assay [5].

For the origin of these results see publication PMC4787765 (Nucleic Acids Research, 2015).
